Experimental data published in US20180230519A1, “METHODS AND KITS FOR SELECTING TREATMENT FOR ORAL INFECTIONS” (OraVital Inc., priority 2017, published 2018).
Read-outs that look alike come from different tables or passages of the source.

Experiments:
[1] = system: Aggregatibacter actinomycetemcomitans; conditions: general statement, no test described; cited from earlier work
[2] = system: oral malodor and periodontal disease; assay: Clinical study of antibiotic antifungal rinse in patients with halitosis
Description: (§1) Tongue base, tongue dorsum, and proximal areas of the dentition were evaluated for odors. Biofilm samples from these areas were taken from each patient. A Gram stain analysis provided morphological information on the microorganisms present in the oral cavity. In addition, the microbiology of the teeth and tongue was tested with a BANA strip for red complex clusters. Six-point periodontal probing was used to assess pocket depth and bleeding points.
(§2) Treatment initially consisted of rinsing with chlorhexidine 0.2% for 2 weeks, twice daily.
(§3) The treatment chosen was the metronidazole-nystatin rinse prepared as described in Example 3. Three times a day, patients dispensed a “capful” (2 ml) of this mixture, swished and gargled for 30 seconds, and expectorated the contents. Once per day, they flossed immediately after rinsing. After each rinse with antibiotic mixture, patients were to abstain from eating or drinking for 30 minutes. After 2 weeks of rinsing, patients returned to the clinic for an evaluation of treatment. Breath odor measurements and periodontal measurements were repeated, and compared with those taken at the initial appointment. Microbiology samples of the tongue base, tongue dorsum, and teeth were taken, analyzed, and compared with the pre-treatment samples. Patients were then placed on chlorhexidine 0.2% for 2 more weeks, followed by routine rinsing with non-prescription mouthwashes that the patient selected.

[3] = system: oral malodor and periodontal disease; conditions: human, in vivo
Description: as §1, §2, §3

Solubility in water = type: physicochemical
Description: A metronidazole-nystatin mixture was prepared for use as an oral rinse to treat halitosis, gingivitis, tonsillitis, and/or mild to moderate periodontal disease. Tablets of metronidazole (APO-Metronidazole™, Apotex Corp.) were crushed and grounded, the larger particles filtered out, and the fine particles mixed with nystatin suspension or nystatin powder (Nilstat™, Alimed or PMS PharmaScience) in distilled water.

**Q.** With `CC1(C)S[C@@H]2[C@H](NC(=O)[C@H](N)c3ccc(O)cc3)C(=O)N2[C@H]1C(=O)O` [amoxicillin] as the molecule, how does the “response of Aggregatibacter actinomycetemcomitans” value [1] read?
**A.** The value was “responds best”.

**Q.** Which “reduction of oral malodor” value ([2]; chlorhexidine 0.2% rinse alone, 2 weeks, twice daily) does the source give for `[H]/N=C(\N/C(=N/[H])NCCCCCCNC(=N)NC(=N)Nc1ccc(Cl)cc1)Nc1ccc(Cl)cc1` [chlorhexidine] here?
**A.** The value was “insufficient to completely reduce oral malodor”.

**Q.** Which side effects ([2]; systemic metronidazole and clindamycin, followed by 0.2% chlorhexidine) does the source give for `CCC[C@@H]1C[C@@H](C(=O)N[C@@H]([C@H]2O[C@H](SC)[C@H](O)[C@@H](O)[C@H]2O)[C@H](C)Cl)N(C)C1` [clindamycin] here?
**A.** Its side effects is “systemic side effects”.

**Q.** With `Cc1ncc([N+](=O)[O-])n1CCO` [metronidazole] as the molecule, how does the side effects [3] read?
**A.** The side effects was “systemic side effects”.

**Q.** And the “Aggregatibacter actinomycetemcomitans responds (share of the time)” value [1]?
**A.** Its value is “about 50 % of the time”.

**Q.** What about the solubility in water (Solubility in water) of the same molecule?
**A.** Its solubility in water is “sparingly soluble or practically insoluble”.

**Q.** With `C[C@@H]1[C@H](O)[C@@H](C)/C=C/C=C/CC/C=C/C=C/C=C/C=C/C(O[C@H]2O[C@H](C)[C@@H](O)[C@H](N)[C@@H]2O)CC2O[C@](O)(CC(O)C(O)CCC(O)CC(O)CC(O)CC(=O)O[C@H]1C)CC(O)C2C(=O)O` (stereo partly shown) [nystatin] as the molecule, how does the solubility in water (Solubility in water; water, form a suspension or dispersion) read?
**A.** Its solubility in water is “sparingly soluble or practically insoluble”.
